Reference: patent US11930819B2, “Antimicrobial compositions with enhanced efficacy” (ECOLAB USA INC., priority 2017, dated 2024)
“Also recorded” adds a separate entry of the source.

Legend:
Assay type in all cases: cell-based
[1] = tested on: Serratia marcescens ATCC 14756; assay: Time Kill Efficacy, chelant comparison; conditions: chelant added to cationic active-containing base formula
Experimental: Testing was performed to assess performance of differing chelants. Multiple amino acid based chelants were tested in exemplary compositions of the invention and tested against a control formulation containing no chelant.
Formula 5A served as the control having no chelant. Formulas 5B and 5C included GLDA and MGDA, respectively, for comparative testing against each other and the control. The compositions were inoculated with Serratia marcescens ATCC 14756 for 30 seconds at room temperature. Before adding the antimicrobial compositions, the inoculum numbers were measured (CFO/mL). The average count was […] providing a log average of 8.06. The inoculated surface was contacted with the various formulations for 30 seconds and the log reduction was measured.

[2] = tested on: Serratia marcescens ATCC 14756; assay: in vitro Time Kill testing (ASTM E 2315), Serratia marcescens; conditions: 1.2% cationic surfactant with 0.6% benzalkonium chloride, Table 6
Experimental: (§1) In Examples 1-4, the survival of challenged organisms exposed to an antimicrobial test composition was measured using in vitro Time Kill testing, based on ASTM E 2315 Standard Guide for Assessment of Antimicrobial Activity Using a Time Kill Procedure. Utilizing this method, the inoculum is prepared by growing a microbial culture using a D/E agar medium. The microbial population then is washed from the agar with sterile physiological saline and the population of the microbial suspension is adjusted to around 10^8 colony forming units (cfu) per ml. An aliquot of the test formula, or a dilution thereof, is brought into contact with this known population of bacteria at ambient temperature. The test composition is neutralized after a set amount of time, which arrests the antimicrobial activity of the test sample. The log reduction from the original bacteria population is calculated using the following formula: log10 reduction=log10(control)−log10(test sample survivors) Each test was performed in duplicate and the average log reduction reported.
Once it was determined that cationic surfactants with chain lengths having 18 or less carbons provided enhanced microbiological efficacy, three such cationic surfactants were evaluated against Serratia marcescens, a Gram negative microorganism. […]

[3] = tested on: Escherichia coli ATCC 11229; assay: in vitro Time Kill testing (ASTM E 2315), cationic-compatible surfactants, Table 4; conditions: 1% surfactant in 0.2% benzalkonium chloride formula
Experimental: as §1, with “reported. The efficacy of formulations with differing cationic-compatible surfactants with the same alkyl chain length is outlined in Tables 3 and 4. In each instance, citric acid and/or potassium hydroxide were used to maintain a pH of 6, and water was added quantum satis. […]” for “reported.”

Compound	effect of chelant on antimicrobial efficacy of base formula [1]	degree of microbiological efficacy [2]	impact on microbiological efficacy [3]
O=C(O)CC[C@@H](C(=O)O)N(CC(=O)O)CC(=O)O [GLDA, Glutamic acid diacetic acid]	did not show any enhancement of antimicrobial efficacy	–	–
CCCCCCCCCCCC[N+](C)(C)C.[Cl-] [Laurtrimonium chloride, Lauryl Trimethyl Ammonium Chloride]	–	highest degree of efficacy	–
CC(C(=O)O)N(CC(=O)O)CC(=O)O (stereo not drawn) [MGDA, Methylglycinediacetic acid]	significantly enhance the biocidal activity; also recorded: much higher log reduction	–	–
CCCCCCCCCCCCCCCC(=O)NCCC[N+](C)(C)C.[Cl-] [Palmitamidopropyl trimonium chloride, Palmitamidopropyl Trimonium Chloride]	–	lowest degree of microbiological efficacy	–
Cocamidopropyl Betaine	–	–	significant negative impact on microbiological efficacy
Coco Glucoside	–	–	negative impact on microbiological efficacy
